According to patent US8642644B2, “Ophthamological drugs” (Duke University, priority 2004, dated 2014):
Blank lines part the entries; values can stand above or below the molecule they belong to.

Key:
[1] = system: intraocular pressure (IOP); experiment: Effects on intraocular pressure (IOP) after topical administration to normotensive Dutch-belted rabbits (Example 15); format: in vivo, rabbit; settings: for Maximum reduction of IOP (absolute) / Maximum reduction of IOP (percent): once a day for three days
Source text: In order to study the utility of the compounds in the treatment of glaucoma, their effects on intraocular pressure (IOP) were investigated following administration to normotensive rabbits.
5-O-Ribitol [2,3-dichloro-4-(thiophene-2-carbonyl)]phenoxyacetate: 10% and 15% in a lanolin base.
5-O-Xylitol 4-(2-phenylacryloyl)cinnamate: 0.3% and 0.6% mixed equimolar with cysteine in solution.
11-Hydroxy-3,6,9-trioxaundecyl 4-(2-phenylacryloyl)cinnamate: 0.3% and 0.6% mixed equimolar with cysteine in solution.
Eyedrops administered topically to male Dutch-belted rabbits (3-5 kg). IOP determinations made with pneumatonometer (Medtronic Solan, Jacksonville, Fla.) as the average of three measurements per eye at each timepoint. Prior to IOP determination and drug administration, eyes were topically anesthetized with proparacaine hydrochloride, 0.5% (Bausch and Lomb, Inc, Tampa, Fla.).
5-O-Ribitol [2,3-dichloro-4-(thiophene-2-carbonyl)]phenoxyacetate: Eyedrops containing the compound were administered once a day for three days. The contralateral eye was administered lanolin base. IOP was assessed in the morning and afternoon for seven days.
5-O-Xylitol 4-(2-phenylacryloyl)cinnamate: Eyedrops containing the compound were administered twice daily for 7 days. The contralateral eye was left untreated to serve as a control. IOP was assessed concurrently with drug administration.
5-O-{(9α,11α,15R)-15-[2-Benzo[b]thiophen-2-yl]-16,17,18,19,20-pentanor-5,6,13,14-tetrahydro-9,11,15-trihydroxyprostanoyl}xylitol: Eyedrops containing the compound were administered once daily for 7 days. No drug was given on days 8 and 9. The animals were then treated once daily on days 10 through 14. IOP was assessed concurrently with drug administration.
1-O-{(9α,11α,15R)-15-[2-Benzo[b]thiophen-2-yl]-16,17,18,19,20-pentanor-5,6,13,14-tetrahydro-9,11,15-trihydroxyprostanoyl}-11-hydroxy-3,6,9-trioxaundecane: Eyedrops containing the compound were administered once daily for 5 days. The contralateral eye was left untreated to serve as a control. IOP was assessed concurrently with drug administration.
11-Hydroxy-3,6,9-trioxaundecyl 4-(2-phenylacryloyl)cinnamate: Eyedrops containing the compound were administered twice daily for 7 days. The contralateral eye was left untreated to serve as a control. IOP was assessed concurrently with drug administration.

intraocular pressure [2] = experiment: Intraocular pressure lowering by ticrynafen-ribitol ester ointment in the Dutch Belted rabbit model (Example 3); format: in vivo; settings: for Maximal pressure reduction: topical, doses at 0, 24 and 48 hours
Method: Ticrynafen-ribitol ester was formulated as an ointment in 5, 10, and 15% concentrations. The Dutch Belted rabbit model was used to test the formulation for both pressure lowering and side effects. Baseline intraocular pressures were obtained by placing one drop of proparacaine in each eye followed by pressure measurements utilizing a Pneumotonometer®. […] The second eye was used as a control with application of lanolin ointment without drug. Repeat doses were given at 24 hour intervals for a total of three doses (0, 24, and 48 hours). Intraocular pressures were recorded every 12 hours for one week. A total of twelve rabbits received the 5% ointment, eight rabbits the 10% ointment, and eight rabbits the 15% ointment. FIG. 4 presents the 10% data with statistically significant timepoints indicated by double asterisks.

[3] = Solubility in petrolatum/lanolin mixtures; format: physicochemical
[4] = Activity against glaucoma (stated in words)
intraocular pressure [5] = experiment: Intraocular pressure lowering by 0.004% AR101 solution in the Dutch Belted rabbit model (Example 6); format: in vivo; settings: 0.004% solution; loading dose 3 drops day 0 and 10, one drop daily days 1-7 and 10-14; versus contralateral control eye
Source text: The xylitol prostaglandin ester of Formula V (also called AR101) was formulated as a 0.004% solution for topical administration. The Dutch Belted Rabbit model was used to test the formulation for both pressure lowering and side effects. Baseline intraocular pressures were obtained by placing one drop of proparacaine in each eye followed by pressure measurements with a Pneumotonometer®. One eye of each rabbit received a loading dose of 3 drops 0.004% AR101 on day 0 and day 10. One drop of AR101 was given daily on days 1-7 and 10-14. No drug was given on days 8 and 9. The contralateral control eye received balanced salt solution drops without AR101. Intraocular pressure measurements were recorded every 12 hours for two weeks.

[6] = 0.004% in solution, once daily for 5 days
[7] = 0.02% in solution, once daily for 5 days
[8] = 0.3% mixed equimolar with cysteine in solution, twice daily for 7 days
[9] = 0.6% mixed equimolar with cysteine in solution, twice daily for 7 days
[10] = 10% in lanolin base, at 36 hours
[11] = 15% in lanolin base, at 60 hours
[12] = 0.004% in solution, once daily days 1-7 and 10-14

Method for pig liver esterase: Since the sugar alcohol moiety imparts water-solubility to the compounds, an assay can be readily set up to determine the optimal sugar alcohol for each drug moiety based on the release rate thus: A commercially-available preparation of esterase, such as porcine liver esterase (Sigma Corp., St. Louis), is prepared at a standard concentration. The drug-sugar alcohol combination, dissolved in methanol or a methanol-water or methanol-acetonitrile combination, is added dropwise to the esterase and the rate at which the compound is released from the alcohol is determined. The analytical technique used to determine the amount of free acid will vary with the acid used, but a typical procedure would be by TLC, or reverse-phase TLC, or HPLC or by Mass Spectroscopy. One skilled in the art can readily determine the optimal analytical method for each sugar-acid pair evaluated. This assay can easily be adapted to be run in a 96-well plate format, or other high-throughput method of determining activity.

Compound: O=C(CCCCCC[C@@H]1[C@@H](CCC(O)c2cc3ccccc3s2)[C@H](O)C[C@@H]1O)OCCOCCOCCOCCO (stereo partly drawn) [1-O-{(9α,11α,15R)-15-[2-Benzo[b]thiophen-2-yl]-16,17,18,19,20-pentanor-5,6,13,14-tetrahydro-9,11,15-trihydroxyprostanoyl}-11-hydroxy-3,6,9-trioxaundecane]
Maximum reduction from untreated control [1, 6]: −2.8 mmHg
Maximum reduction from untreated control (percent) [1, 6]: 12%
Maximum reduction from untreated control [1, 7]: −3.0 mmHg
Maximum reduction from untreated control (percent) [1, 7]: 17%

Compound: C=C(C(=O)c1ccc(C=CC(=O)OCCOCCOCCOCCO)cc1)c1ccccc1 [11-Hydroxy-3,6,9-trioxaundecyl 4-(2-phenylacryloyl)cinnamate]
Maximum reduction from untreated control [1, 8]: −1.7 mmHg
Maximum reduction from untreated control (percent) [1, 8]: 8%
Maximum reduction from untreated control [1, 9]: −1.9 mmHg
Maximum reduction from untreated control (percent) [1, 9]: 8%

Solubility in petrolatum/lanolin mixtures [3]: completely soluble
Compound: O=C(COc1ccc(C(=O)c2cccs2)c(Cl)c1Cl)OC[C@H](O)[C@H](O)[C@H](O)CO [Formula III, 5-O-Ribitol [2,3-dichloro-4-(thiophene-2-carbonyl)]phenoxyacetate]
Maximum reduction of IOP (absolute) [1, 10]: −4.3
Maximum reduction of IOP (percent) [1, 10]: 18%
Maximum reduction of IOP (absolute) [1, 11]: −3.0
Maximum reduction of IOP (percent) [1, 11]: 13%
Maximal pressure reduction (intraocular pressure [2]; 5% ointment, maximum at 54 hours): 11%
Maximal pressure reduction (intraocular pressure [2]; 10% ointment, maximum at 36 hours): 18%
Maximal pressure reduction (intraocular pressure [2]; 15% ointment, maximum at 60 hours): 13%
Reduction of intraocular pressure (IOP), in words (intraocular pressure [2]; Dutch-Belted white rabbits, petrolatum/lanolin ointment): reduces intraocular pressure (IOP) in a dose-dependent fashion

Compound: O=C(O)CCCCCC[C@@H]1[C@@H](CC[C@@H](O)c2cc3ccccc3s2)[C@H](O)C[C@@H]1O [Formula II]
Activity against glaucoma, in words [4]: strong activity against glaucoma

Compound: O=C(O)COc1ccc(C(=O)c2cccs2)c(Cl)c1Cl [Formula IV, Ticrynafen]
Activity against glaucoma, in words [4]: little or no activity

Hydrolysis by pig liver esterase (pig liver esterase): readily hydrolyzed
Compound: O=C(CCCCCC[C@@H]1[C@@H](CC[C@@H](O)c2cc3ccccc3s2)[C@H](O)C[C@@H]1O)OC[C@@H](O)[C@H](O)[C@@H](O)CO [Formula V, 5-O-{(9α,11α,15R)-15-[2-Benzo[b]thiophen-2-yl]-16,17,18,19,20-pentanor-5,6,13,14-tetrahydro-9,11,15-trihydroxyprostanoyl}xylitol]
Significant reductions of IOP from baseline (days) [1, 12]: Significant reductions from baseline on days 2, 3, 5, 11, and 12
Significant reductions of IOP from baseline and untreated control (days) [1, 12]: Significant reductions from baseline and untreated control on days 3, 5, and 11
Statistically significant pressure reductions between eyes (days) (intraocular pressure [5]): Statistically significant pressure reductions between eyes were observed on days 3, 7, and 11

Compound: C=C(C(=O)c1ccc(/C=C/C(=O)OC[C@@H](O)[C@H](O)[C@@H](O)CO)cc1)c1ccccc1 [Formula VIII, 5-O-Xylitol 4-(2-phenylacryloyl)cinnamate]
Maximum reduction from untreated control [1, 8]: −2.4 mmHg
Maximum reduction from untreated control (percent) [1, 8]: 11%
Maximum reduction from untreated control [1, 9]: −2.4 mmHg
Maximum reduction from untreated control (percent) [1, 9]: 13%
